The values below are quoted from earlier work in patent publication US5952465A, “Polypeptides that include conformation-constraining groups which flank a protein-protein interaction site” (Virginia Commonwealth University, priority 1998, dated 1999).

Where a SMILES comes first, the peptide text is derived from it.

The subject of the data set is receptors of sweet tasting papillae. The following applies: comparison substance.

For the compound `COC(=O)[C@H](Cc1ccccc1)NC(=O)[C@@H](N)CC(=O)O` [aspartame] (H-Asp-Phe-OMe), the “Sweetness relative to sugar” value is 160 times sweeter than sugar.
